The data set deals with IPEC-J2 cells. Description: Cytotoxicity of DON degradation products, WST assay cell viability. Type of data set: cell-based. Particulars: for Cell Viability (%): 24 hours. On the procedure:
A DMEM/F-12 medium supplemented with 10% FBS and 1% penicillin-streptomycin was added to a T75 flask, and the IPEC-J2 cell line was subcultured in the flask at 37°C and under 5% CO2. For cytotoxicity evaluation, the cultured cells were seeded in 96-well plates containing DMEM/F-12 with 10% FBS to 3×10^4 cells/100 µL, and the cells were incubated for 24 hour under the above conditions. Thereafter, the existing medium was removed, and the three samples in Table 4 were each applied to the cells so as to final concentrations of 2 µM, 1 µM, and 0.5 µM (based on the substrate concentration before the reaction), followed by additional incubation at 37°C in a CO2 incubator for 24 hours. After incubation, the existing substances were removed, and the cells were washed once with DMEM/F-12 and treated with a WST assay reagent (EZ-Cytox kit, DoGenBio) together with the medium. After 2 hours, absorbance at 450 nm was measured to determine cell viability of IPEC-J2 cells.

Structures are written as SMILES.

As for `CC1=C[C@H]2O[C@@H]3[C@H](O)C[C@](C)([C@@]2(CO)[C@H](O)C1=O)[C@]31CO1` [DON Control, deoxynivalenol], the cell viability result (IPEC-J2, 0.5 µM to 2 µM) is “approximately 65%”. Also, the “Cell Viability (%)” value (IPEC-J2, sample concentration 0.5 µM (substrate concentration before the reaction)) turned out to be 79.0%; the “Cell Viability (%)” value (IPEC-J2, sample concentration 1 µM (substrate concentration before the reaction)) turned out to be 71.4%; the “Cell Viability (%)” value (IPEC-J2, sample concentration 2 µM (substrate concentration before the reaction)) is 64.6%.

The values above are taken from patent EP4700120A1, “NOVEL P[…] DON-DEGRADING ACTIVITY” (CJ Cheiljedang Corporation, priority 2023, dated 2024).
